Laboratory results taken from US11021488B2, “Hetero-substituted cyclic lactone analogues and uses thereof” (BioVentures, LLC, priority 2015, dated 2021).

What was measured:
[1] = Solubility in water; assay type: physicochemical
[2] = tested on: MOLM-13_BLIV cells; experiment: In vivo efficacy in NSG mice injected with MOLM-13_BLIV leukemia cells (luciferin imaging); conditions: 2.5 mg/kg in 20% DMSO i.p. every other day, imaged Day 23 and Day 31, vs vehicle
Description: To evaluate the efficacy of bahia II (BAH) in vivo, 6-8 week old NSG mice were injected i.v. via tail vein with 2.5×10^5 MOLM-13_BLIV cells. Two weeks after injection mice were injected with 3 mg of luciferin to visualize the leukemia cells using the IVIS Spectrum Imager. This was denoted time 0. Mice were randomized into 2 groups: (1) Vehicle (DMSO 20%) and (2) bahia II (BAH) (2.5 mg/kg in 20% DMSO). Mice were treated with vehicle or BAH every other day. After 3 doses, administered by i.p. injection, mice were imaged to evaluate tumor progression (Day 23). One week after the first 3 doses, the mice were treated and evaluated again in the same manner (Day 31).

[3] = tested on: MV4-11 cells; experiment: Cytotoxic activity of SLs against MV4-11 cells (flow cytometry, YO-PRO-1 / 7-AAD); assay type: cell-based; conditions: MV4-11 AML cell line, cell viability at 36 hours, triplicate
Description: Following this promising data, additional SLs were studied. This included glaucolide A (FIG. 5A), glaucolide E (FIG. 5B) and calaxin (FIG. 4A). Further, an additional compound Bahia I (FIG. 11) was synthesized (described below) and evaluated. The cytotoxicity of these compounds was determined using the AML cell line, MV4-11. MV4-11 cells were treated with the compounds at varying concentrations in triplicate. Cells were then stained with YO-PRO-1 and 7-aminoactinomycin D (7-AAD). YO-PRO-1 stains apoptotic cells and 7-ADD detects cell permeability. At 36 hours cell viability was measured via flow cytometry.

[4] = tested on: normal peripheral blood mononuclear cells (PBMNCs); experiment: Toxicity against normal peripheral blood mononuclear cells compared with leukemic cells; assay type: cell-based; conditions: PBMNCs compared with leukemic cells (FIG. 14)
Text: The cytotoxicity of Bahia II against leukemic cells was compared with its activity against normal peripheral blood mononuclear cells (PBMNCs) (FIG. 14).

[5] = tested on: AML primary samples; experiment: Activity of SLs against AML primary samples

Compound | LD50 [3] [µM] | Average LD50 [5] [µM] | also measured
C=C1C(=O)OC2C1C(OC(=O)/C(=C/CO)CO)CC1(CO1)C1CC=C(C)C21 (centres unmarked) [Bahia II] | 1.21 | 4.64 | solubility in water ([1]; mass concentration): 1.75 ± 0.06 mg/mL; solubility in water ([1]; molar): 465 µM; radiance emitted from tumor cells [2]: significant reduction in radiance; toxicity against normal cells versus leukemia cells [4]: much lower toxicity against normal cells
C=C(C)C(=O)O[C@@H]1C[C@@]2(C)OC(=CC2=O)/C(C)=C\[C@H]2OC(=O)C(=C)[C@@H]21 [Calaxin] | 0.0544 |  | 
C=C1C(=O)O[C@@H]2[C@H]3C(C)=CC(=O)C3=C(C)CC[C@@H]12 [DHL, Dehydroleucodine, reference compound] | 3.19 | 7.06 | 
C=C1C(=O)O[C@@H]2/C=C(\C)CC/C=C(\C)C[C@@H](OC(=O)/C(=C/CO)CO)[C@@H]12 [Eupatoriopicrin] | 1.09 | 5.65 | 
Bahia I | 2.80 |  | 
Glaucolide A | 1.82 |  | 
Glaucolide E | 1.12 |  | 
